Measured values from the kinase profiling compilation of Christmann-Franck et al. (2016).
Values belong to the compound of their own block, whether it stands above or below them.

Key:
Experiment in all cases: radiometric filter-binding kinase assay
[1] = system: AKT1 (human), P31749 [S473D]
BRSK2 (human) = BRSK2 (human) (UniProt Q8IWQ3)
CSK (human) = CSK (human) (UniProt P41240)
CSNK1D (human) = CSNK1D (human) (UniProt P48730)
EEF2K (human) = EEF2K (human) (UniProt O00418)
GSK3B (human) = GSK3B (human) (UniProt P49841)
HIPK3 (human) = HIPK3 (human) (UniProt Q9H422)
IKBKB (human) = IKBKB (human) (UniProt O14920)
MAPK1 (human) = MAPK1 (human) (UniProt P28482)
MAPK1 (human), sequence (P28482 whole entry, looked up): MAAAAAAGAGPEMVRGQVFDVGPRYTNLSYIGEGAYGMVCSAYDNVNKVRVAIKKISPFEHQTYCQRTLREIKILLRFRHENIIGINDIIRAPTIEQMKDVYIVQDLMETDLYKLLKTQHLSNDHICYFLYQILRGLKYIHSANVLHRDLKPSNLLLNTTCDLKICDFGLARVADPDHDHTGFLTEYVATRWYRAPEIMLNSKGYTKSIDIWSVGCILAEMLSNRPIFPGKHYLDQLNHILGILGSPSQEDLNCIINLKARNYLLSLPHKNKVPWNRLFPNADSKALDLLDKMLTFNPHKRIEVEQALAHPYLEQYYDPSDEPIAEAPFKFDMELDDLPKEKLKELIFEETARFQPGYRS

MAPK15 (human) = MAPK15 (human) (UniProt Q8TD08)
MAPK3 (human) = MAPK3 (human) (UniProt P27361)
MAPK3 (human), sequence (P27361 whole entry, looked up): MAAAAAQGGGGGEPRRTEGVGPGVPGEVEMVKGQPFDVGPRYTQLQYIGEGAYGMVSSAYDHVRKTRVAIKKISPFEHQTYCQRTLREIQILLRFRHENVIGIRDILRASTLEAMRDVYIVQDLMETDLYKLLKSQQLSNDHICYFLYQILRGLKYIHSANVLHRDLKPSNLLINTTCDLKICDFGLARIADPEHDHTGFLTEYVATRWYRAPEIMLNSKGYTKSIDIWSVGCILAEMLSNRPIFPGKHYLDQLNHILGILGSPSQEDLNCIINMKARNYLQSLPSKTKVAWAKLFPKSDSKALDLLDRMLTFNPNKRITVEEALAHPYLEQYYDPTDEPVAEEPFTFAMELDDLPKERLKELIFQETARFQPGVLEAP

MAPK8 (human) = MAPK8 (human) (UniProt P45983)
MAPK8 (human), sequence (P45983 whole entry, looked up): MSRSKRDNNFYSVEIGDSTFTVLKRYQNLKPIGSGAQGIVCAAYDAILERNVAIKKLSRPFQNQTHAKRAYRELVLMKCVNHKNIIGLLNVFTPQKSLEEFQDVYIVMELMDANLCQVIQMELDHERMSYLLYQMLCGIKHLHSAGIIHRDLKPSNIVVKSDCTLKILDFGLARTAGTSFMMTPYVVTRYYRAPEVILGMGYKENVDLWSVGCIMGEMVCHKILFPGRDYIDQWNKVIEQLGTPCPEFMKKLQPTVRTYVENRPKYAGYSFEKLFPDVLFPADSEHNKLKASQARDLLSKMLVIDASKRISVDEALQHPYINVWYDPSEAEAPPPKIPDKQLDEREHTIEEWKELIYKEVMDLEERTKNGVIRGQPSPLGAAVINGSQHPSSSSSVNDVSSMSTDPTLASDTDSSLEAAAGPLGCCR

MAPK9 (human) = MAPK9 (human) (UniProt P45984)
MAPKAPK3 (human) = MAPKAPK3 (human) (UniProt Q16644)
MKNK2 (human) = MKNK2 (human) (UniProt Q9HBH9)
MKNK2 (human), sequence (Q9HBH9 whole entry, looked up): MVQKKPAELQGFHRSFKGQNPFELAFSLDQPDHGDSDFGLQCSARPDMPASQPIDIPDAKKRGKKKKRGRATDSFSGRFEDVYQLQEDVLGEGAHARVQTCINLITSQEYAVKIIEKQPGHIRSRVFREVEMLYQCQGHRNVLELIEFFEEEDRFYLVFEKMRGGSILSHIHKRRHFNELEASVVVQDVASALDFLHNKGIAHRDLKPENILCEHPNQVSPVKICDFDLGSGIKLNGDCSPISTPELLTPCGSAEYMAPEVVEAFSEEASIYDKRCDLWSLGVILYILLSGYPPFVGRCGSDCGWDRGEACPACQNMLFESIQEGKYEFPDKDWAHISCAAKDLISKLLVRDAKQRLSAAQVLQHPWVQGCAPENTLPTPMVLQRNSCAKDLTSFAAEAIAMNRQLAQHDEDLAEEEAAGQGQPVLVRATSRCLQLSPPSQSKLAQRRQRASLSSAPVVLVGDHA

NEK6 (human) = NEK6 (human) (UniProt Q9HC98)
NEK6 (human), sequence (Q9HC98 whole entry, looked up): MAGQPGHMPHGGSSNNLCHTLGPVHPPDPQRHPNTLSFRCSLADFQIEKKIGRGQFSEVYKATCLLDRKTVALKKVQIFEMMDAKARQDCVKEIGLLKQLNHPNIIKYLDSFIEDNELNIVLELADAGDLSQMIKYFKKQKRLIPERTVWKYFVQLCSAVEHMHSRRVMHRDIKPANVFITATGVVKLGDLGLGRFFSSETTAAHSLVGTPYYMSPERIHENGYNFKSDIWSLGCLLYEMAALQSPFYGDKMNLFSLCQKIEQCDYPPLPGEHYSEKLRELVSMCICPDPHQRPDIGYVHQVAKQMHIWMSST

PAK7 (human) = PAK7 (human) (UniProt Q9P286)
PLK1 (human) = PLK1 (human) (UniProt P53350)
PLK1 (human), sequence (P53350 whole entry, looked up): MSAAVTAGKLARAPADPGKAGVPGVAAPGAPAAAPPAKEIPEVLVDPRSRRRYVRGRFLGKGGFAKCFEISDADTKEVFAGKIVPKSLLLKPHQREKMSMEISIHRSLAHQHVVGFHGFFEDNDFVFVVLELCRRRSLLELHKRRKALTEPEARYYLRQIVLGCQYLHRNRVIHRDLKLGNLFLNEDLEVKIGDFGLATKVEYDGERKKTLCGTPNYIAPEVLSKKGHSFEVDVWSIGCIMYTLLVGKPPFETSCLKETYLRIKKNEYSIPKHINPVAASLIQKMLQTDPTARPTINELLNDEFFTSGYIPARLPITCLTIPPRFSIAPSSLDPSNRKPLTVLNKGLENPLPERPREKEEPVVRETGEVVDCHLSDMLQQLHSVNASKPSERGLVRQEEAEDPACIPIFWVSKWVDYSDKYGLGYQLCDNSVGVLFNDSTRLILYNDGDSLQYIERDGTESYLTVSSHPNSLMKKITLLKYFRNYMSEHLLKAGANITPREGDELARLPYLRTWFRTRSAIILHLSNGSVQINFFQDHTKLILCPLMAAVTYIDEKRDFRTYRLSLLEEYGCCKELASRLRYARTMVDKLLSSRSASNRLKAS

RPS6KA3 KD1 KD2 (human) = RPS6KA3 KD1 KD2 (human) (UniProt P51812)
RPS6KA5 KD1 KD2 (human) = RPS6KA5 KD1 KD2 (human) (UniProt O75582)
RPS6KA5 KD1 KD2 (human), sequence (O75582 whole entry, looked up): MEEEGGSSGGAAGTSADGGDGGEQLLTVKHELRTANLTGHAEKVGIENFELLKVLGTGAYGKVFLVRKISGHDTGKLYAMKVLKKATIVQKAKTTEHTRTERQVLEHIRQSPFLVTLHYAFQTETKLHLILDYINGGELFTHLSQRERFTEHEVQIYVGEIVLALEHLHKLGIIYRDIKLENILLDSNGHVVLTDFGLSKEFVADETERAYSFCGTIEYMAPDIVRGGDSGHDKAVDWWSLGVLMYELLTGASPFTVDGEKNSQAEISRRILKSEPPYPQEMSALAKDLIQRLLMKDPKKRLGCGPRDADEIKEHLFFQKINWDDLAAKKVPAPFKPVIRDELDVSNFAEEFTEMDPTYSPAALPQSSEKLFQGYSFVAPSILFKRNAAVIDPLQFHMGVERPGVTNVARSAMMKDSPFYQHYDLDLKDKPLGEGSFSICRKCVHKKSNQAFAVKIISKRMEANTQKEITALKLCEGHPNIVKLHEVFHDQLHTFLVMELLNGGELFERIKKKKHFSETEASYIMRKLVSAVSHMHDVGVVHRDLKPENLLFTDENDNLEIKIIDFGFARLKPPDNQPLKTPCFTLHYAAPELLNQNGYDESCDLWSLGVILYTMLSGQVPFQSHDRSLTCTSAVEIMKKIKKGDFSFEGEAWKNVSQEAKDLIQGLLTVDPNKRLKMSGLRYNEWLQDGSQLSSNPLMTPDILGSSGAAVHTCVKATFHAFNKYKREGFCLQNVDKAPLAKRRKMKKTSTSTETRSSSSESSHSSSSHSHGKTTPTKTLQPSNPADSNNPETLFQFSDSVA

SRPK1 (human) = SRPK1 (human) (UniProt Q96SB4)
SRPK1 (human), sequence (Q96SB4 whole entry, looked up): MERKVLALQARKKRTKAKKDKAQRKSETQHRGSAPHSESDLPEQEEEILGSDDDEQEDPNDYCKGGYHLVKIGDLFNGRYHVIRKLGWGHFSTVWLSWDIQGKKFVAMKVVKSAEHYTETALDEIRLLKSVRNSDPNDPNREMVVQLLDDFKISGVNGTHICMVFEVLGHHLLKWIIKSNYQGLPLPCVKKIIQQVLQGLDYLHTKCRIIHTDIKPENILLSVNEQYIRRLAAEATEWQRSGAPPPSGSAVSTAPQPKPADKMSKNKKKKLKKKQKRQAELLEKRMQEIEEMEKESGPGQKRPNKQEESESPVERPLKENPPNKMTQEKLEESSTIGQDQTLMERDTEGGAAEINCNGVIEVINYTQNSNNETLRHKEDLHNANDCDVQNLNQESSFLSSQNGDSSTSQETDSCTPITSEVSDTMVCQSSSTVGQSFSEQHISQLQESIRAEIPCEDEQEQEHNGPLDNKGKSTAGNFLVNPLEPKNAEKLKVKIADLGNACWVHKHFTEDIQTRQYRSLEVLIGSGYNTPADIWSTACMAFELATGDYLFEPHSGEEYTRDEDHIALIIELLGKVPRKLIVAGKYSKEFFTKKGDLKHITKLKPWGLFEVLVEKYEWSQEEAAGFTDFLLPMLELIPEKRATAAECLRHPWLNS

CSNK1D (human), sequence (P48730 whole entry, looked up): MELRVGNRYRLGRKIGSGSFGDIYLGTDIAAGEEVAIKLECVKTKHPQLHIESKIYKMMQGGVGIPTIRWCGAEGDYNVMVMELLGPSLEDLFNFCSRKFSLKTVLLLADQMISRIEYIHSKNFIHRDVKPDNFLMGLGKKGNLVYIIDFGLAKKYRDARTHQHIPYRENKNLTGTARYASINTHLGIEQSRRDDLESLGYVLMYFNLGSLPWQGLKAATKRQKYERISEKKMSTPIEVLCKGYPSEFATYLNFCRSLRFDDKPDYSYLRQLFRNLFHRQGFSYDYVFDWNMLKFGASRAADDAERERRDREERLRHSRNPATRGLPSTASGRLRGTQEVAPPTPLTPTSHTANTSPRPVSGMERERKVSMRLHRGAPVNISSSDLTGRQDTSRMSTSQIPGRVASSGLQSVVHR
AKT1 (human), P31749 [S473D], sequence (P31749 whole entry S473D, looked up): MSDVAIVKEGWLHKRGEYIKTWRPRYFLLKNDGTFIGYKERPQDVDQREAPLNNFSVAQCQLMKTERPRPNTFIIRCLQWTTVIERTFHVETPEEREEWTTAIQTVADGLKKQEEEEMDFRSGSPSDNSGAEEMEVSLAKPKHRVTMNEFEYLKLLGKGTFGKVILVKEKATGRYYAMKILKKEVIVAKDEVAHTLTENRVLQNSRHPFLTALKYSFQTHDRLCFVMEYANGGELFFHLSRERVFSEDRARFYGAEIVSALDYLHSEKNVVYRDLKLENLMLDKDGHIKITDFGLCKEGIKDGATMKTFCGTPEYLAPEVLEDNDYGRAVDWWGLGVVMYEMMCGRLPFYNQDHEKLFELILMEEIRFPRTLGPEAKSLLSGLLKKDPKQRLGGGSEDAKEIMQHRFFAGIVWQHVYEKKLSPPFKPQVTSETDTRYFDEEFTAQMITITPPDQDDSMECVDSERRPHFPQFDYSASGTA

- residual activity ([1]; compound 1.0 µM): 124%
- residual activity ([1]; compound 10.0 µM): 106%
- residual activity (BRSK2 (human); compound 1.0 µM): 99%
- residual activity (BRSK2 (human); compound 10.0 µM): 92%
- residual activity (CSK (human); compound 1.0 µM): 88%
- residual activity (CSK (human); compound 10.0 µM): 76%
- residual activity (CSNK1D (human); compound 1.0 µM): 97%
- residual activity (CSNK1D (human); compound 10.0 µM): 62%
- residual activity (EEF2K (human); compound 1.0 µM): 102%
- residual activity (EEF2K (human); compound 10.0 µM): 103%
- residual activity (GSK3B (human); compound 1.0 µM): 119%
- residual activity (GSK3B (human); compound 10.0 µM): 125%
- residual activity (HIPK3 (human); compound 1.0 µM): 143%
- residual activity (HIPK3 (human); compound 10.0 µM): 136%
- residual activity (IKBKB (human); compound 1.0 µM): 98%
- residual activity (IKBKB (human); compound 10.0 µM): 96%
- residual activity (MAPK1 (human); compound 1.0 µM): 107%
- residual activity (MAPK1 (human); compound 10.0 µM): 110%
- residual activity (MAPK3 (human); compound 1.0 µM): 124%
- residual activity (MAPK3 (human); compound 10.0 µM): 111%
- residual activity (MAPK8 (human); compound 1.0 µM): 112%
- residual activity (MAPK8 (human); compound 10.0 µM): 102%
- residual activity (MAPK9 (human); compound 1.0 µM): 122%
- residual activity (MAPK9 (human); compound 10.0 µM): 124%
- residual activity (MAPKAPK3 (human); compound 1.0 µM): 137%
- residual activity (MAPKAPK3 (human); compound 10.0 µM): 132%
- residual activity (MKNK2 (human); compound 1.0 µM): 104%
- residual activity (MKNK2 (human); compound 10.0 µM): 103%
- residual activity (NEK6 (human); compound 1.0 µM): 95%
- residual activity (NEK6 (human); compound 10.0 µM): 95%
- residual activity (PAK7 (human); compound 1.0 µM): 109%
- residual activity (PAK7 (human); compound 10.0 µM): 125%
- residual activity (PLK1 (human); compound 1.0 µM): 92%
- residual activity (PLK1 (human); compound 10.0 µM): 94%
- residual activity (RPS6KA3 KD1 KD2 (human); compound 1.0 µM): 110%
- residual activity (RPS6KA3 KD1 KD2 (human); compound 10.0 µM): 107%
- residual activity (RPS6KA5 KD1 KD2 (human); compound 1.0 µM): 97%
- residual activity (RPS6KA5 KD1 KD2 (human); compound 10.0 µM): 84%
- residual activity (SRPK1 (human); compound 1.0 µM): 137%
- residual activity (SRPK1 (human); compound 10.0 µM): 129%
SMILES: Cn1nc(Nc2ccc(F)cc2)c2c(N)ncnc21
- residual activity (MAPK15 (human); compound 1.0 µM): 76%
- residual activity (MAPK15 (human); compound 10.0 µM): 70%

- residual activity ([1]; compound 0.1 µM): 70%
- residual activity ([1]; compound 1.0 µM): 34%
- residual activity ([1]; compound 10.0 µM): 8%
- residual activity (BRSK2 (human); compound 0.1 µM): 72%
- residual activity (BRSK2 (human); compound 1.0 µM): 18%
- residual activity (BRSK2 (human); compound 10.0 µM): 6%
- residual activity (CSK (human); compound 0.1 µM): 84%
- residual activity (CSK (human); compound 1.0 µM): 78%
- residual activity (CSK (human); compound 10.0 µM): 58%
- residual activity (CSNK1D (human); compound 0.1 µM): 103%
- residual activity (CSNK1D (human); compound 1.0 µM): 83%
- residual activity (CSNK1D (human); compound 10.0 µM): 68%
- residual activity (EEF2K (human); compound 0.1 µM): 106%
- residual activity (EEF2K (human); compound 1.0 µM): 106%
- residual activity (EEF2K (human); compound 10.0 µM): 108%
- residual activity (GSK3B (human); compound 0.1 µM): 67%
- residual activity (GSK3B (human); compound 1.0 µM): 20%
- residual activity (GSK3B (human); compound 10.0 µM): 5%
- residual activity (HIPK3 (human); compound 0.1 µM): 108%
- residual activity (HIPK3 (human); compound 1.0 µM): 106%
- residual activity (HIPK3 (human); compound 10.0 µM): 59%
- residual activity (IKBKB (human); compound 0.1 µM): 104%
- residual activity (IKBKB (human); compound 1.0 µM): 94%
- residual activity (IKBKB (human); compound 10.0 µM): 80%
- residual activity (MAPK1 (human); compound 0.1 µM): 114%
- residual activity (MAPK1 (human); compound 1.0 µM): 110%
- residual activity (MAPK1 (human); compound 10.0 µM): 106%
- residual activity (MAPK3 (human); compound 0.1 µM): 94%
- residual activity (MAPK3 (human); compound 1.0 µM): 102%
- residual activity (MAPK3 (human); compound 10.0 µM): 96%
- residual activity (MAPK8 (human); compound 0.1 µM): 103%
- residual activity (MAPK8 (human); compound 1.0 µM): 99%
- residual activity (MAPK8 (human); compound 10.0 µM): 60%
- residual activity (MAPK9 (human); compound 0.1 µM): 92%
- residual activity (MAPK9 (human); compound 1.0 µM): 63%
- residual activity (MAPK9 (human); compound 10.0 µM): 35%
- residual activity (MAPKAPK3 (human); compound 0.1 µM): 131%
- residual activity (MAPKAPK3 (human); compound 1.0 µM): 92%
- residual activity (MAPKAPK3 (human); compound 10.0 µM): 79%
- residual activity (MKNK2 (human); compound 0.1 µM): 90%
- residual activity (MKNK2 (human); compound 1.0 µM): 88%
- residual activity (MKNK2 (human); compound 10.0 µM): 70%
- residual activity (NEK6 (human); compound 0.1 µM): 99%
- residual activity (NEK6 (human); compound 1.0 µM): 87%
- residual activity (NEK6 (human); compound 10.0 µM): 84%
- residual activity (PAK7 (human); compound 0.1 µM): 108%
- residual activity (PAK7 (human); compound 1.0 µM): 81%
- residual activity (PAK7 (human); compound 10.0 µM): 85%
- residual activity (PLK1 (human); compound 0.1 µM): 99%
- residual activity (PLK1 (human); compound 1.0 µM): 98%
- residual activity (PLK1 (human); compound 10.0 µM): 79%
- residual activity (RPS6KA3 KD1 KD2 (human); compound 0.1 µM): 3%
- residual activity (RPS6KA3 KD1 KD2 (human); compound 1.0 µM): 0%
- residual activity (RPS6KA3 KD1 KD2 (human); compound 10.0 µM): 0%
- residual activity (RPS6KA5 KD1 KD2 (human); compound 0.1 µM): 11%
- residual activity (RPS6KA5 KD1 KD2 (human); compound 1.0 µM): 3%
- residual activity (RPS6KA5 KD1 KD2 (human); compound 10.0 µM): 3%
- residual activity (SRPK1 (human); compound 0.1 µM): 113%
- residual activity (SRPK1 (human); compound 1.0 µM): 89%
- residual activity (SRPK1 (human); compound 10.0 µM): 77%
SMILES: COc1ccc2c(c1)c1c3c(c4c5ccccc5n(C)c4c1n2CC(O)CN(C)C)C(=O)NC3=O (stereo not given)
- residual activity (MAPK15 (human); compound 0.1 µM): 78%
- residual activity (MAPK15 (human); compound 1.0 µM): 53%
- residual activity (MAPK15 (human); compound 10.0 µM): 54%
